Laboratory results: patent US20150313801A1, “DETECTION OF CARIOUS DENTIN TISSUE AND REMOVAL THEREOF BY MEANS OF A DENTAL INSTRUMENT” (RLS GLOBAL AB, priority 2012, published 2015)
“Also recorded” adds a separate entry of the source. One block for each molecule: values may come before it.

Key:
[1] = test system: carious dentin tissue; assay: Staining of carious dentin of a pre molar tooth combined with Carisolv excavation (Example 5)
Description: Carious dentin tissue of a pre molar tooth was treated with Carisolv® to obtain a cavity and subsequently stained with an aqueous solution of the hydrazine derivative Alexa 594. The concentration of the aqueous solution of the hydrazine derivative Alexa 594 was 15-50 mM. […] Carisolv® was added to the cavity and excavation took place with a hand instrument from Mediteam Dental AB to reach a carious free level. […] A dentist performed tactile control of this surface and confirmed that the surface was free of caries.
The slightly stained surface was subjected to treatment with Carisolv® followed by excavation with a hand instrument. […] It was therefore concluded that all carious dentin tissue of the tooth had been removed. It was concluded that a hydrazine derivative such as Alexa 594 can be used in combination with a chemical means for carious dentin tissue such as Carisolv® for selective detection and removal of carious dentin tissue.

[2] = test system: carious dentin tissue; assay: Staining of carious dentin of a pre molar tooth combined with high-speed dental drill (Example 6); settings: 15-50 mM aqueous solution; Diamond/Fissure bur OB 301A FG; repeated several times
Description: Carious dentin tissue of a pre molar tooth stained with an aqueous solution of the hydrazine derivative Alexa 594 in a concentration of 15-50 mM was subjected to mechanical treatment by a dental drill until no staining could be visually detected. The dental drill was a high-speed dental drill Diamond/Fissure bur OB 301A FG from Plandent Forssbergs Dental, Sweden. […] The stained surface was subjected to drilling until no staining could be visually detected. A dentist examined the surface visually and with a tactile instrument and concluded that the surface was free of caries. […] Again, drilling of the stained surface took place until no staining could be observed. […] Drilling and staining as described above in this example was repeated several times. […] This is in contrast to the successful selective detection and removal of carious dentin tissue using a hydrazine derivative in combination with a chemical means for treatment of carious dentin tissue as described in Example 5.

[3] = test system: carious dentin tissue in infected teeth; assay: Staining of caries-infected tooth slices, retention after NaCl and NaOH incubation (Example 2); settings: for colouring of tooth slice after NaCl and NaOH treatment (Day 4): after 1 M NaCl and 0.5 M NaOH overnight incubations, visible light, UV or fluorescence microscopy; for mode of binding to carious tissue in infected teeth (conclusion): conclusion of Example 2
Description: Experiments were performed during 4 days. Whole caries infected tooth was added to an ortho acryl gel, which after hardening was used as a holder prior to […] of brand Zaw Micro Tone, German). Slices, having a thickness of 150 μm, were left over night in each colour to be tested (Day one). On the second day, the colours were washed out by rinsing the slices with MQ water and the teeth sections were photographed under either a microscope (6.7×; visible light), in UV (no microscope) or under a fluorescence microscope (100×). Thereafter, an aqueous salt solution (NaCl, 1 M) was added to the slices and incubated overnight. On the third day the slices were washed with MQ water and thereafter the same detection procedures were used as described above. Finally the tooth slices were exposed to an aqueous solution of NaOH (0.5 M) over night. The washing and detection path were then repeated as described previously (Day 4).

[4] = test system: smear layer on healthy dentin tissue; assay: Staining of drilled dentin of an extracted healthy tooth, smear layer detection (Examples 7 and 8)
Description: An extracted tooth in a healthy state with no previous dental restoration was subjected to drilling with the dental drill Cera Bur at a speed of approximately 1500 rpm. The dental drill Cera Bur was from the company Comet USA LLC and is described in EP 1 849 429. […] Therefore, the tooth was subjected to a high-speed dental drill resulting in a cavity exposing dentin tissue, i.e. a dentin tooth surface. The high speed dental drill was the high-speed dental drill Diamond/Fissure bur OB 301A FG from Plandent Forssbergs Dental, Sweden. […] The staining was visually detected using the instrument PoliLed SN06LP1121 operated at 460-470 nm, Faro.
The thus formed smear layer stained with Lucifer Yellow was subjected to drilling with the dental drill Cera Bur at a speed of approximately 1500 rpm after which rinsing with water took place. […] It was concluded that the Cera Bur drill removed the smear layer and the resulting dentin tissue was free of smear layer.
It was concluded that the dentin tooth surface was free of smear layer. […]
An extracted tooth in a healthy state with no previous dental restoration was subjected to a high-speed dental drill resulting in a cavity exposing dentin tissue, i.e. a dentin tooth surface. […] The staining was visually detected using the instrument PoliLed SN06LP1121 operated at 460-470 nm, Faro. […]

[5] = test system: carious dentin tissue; assay: FTIR of carious dentin tissue treated with hydrazine derivative (Example 3); parameters: species or system human
Excerpt: (§1) Extracted permanent human teeth with no previous dental restorations were selected due to their severe carious tissue status and analysed with FTIR within one week after extraction. The outermost part of the carious dental lesions was removed. The remaining dental carious tissue was divided into two layers; one outer layer with discoloured, soft and infected dental carious tissue and one inner layer that was excavated down to the observed uncoloured hard surface of the remaining healthy dentin controlled by tactile procedures.
(§2) Healthy dentin tissue and carious dentin tissue from the innermost layer were collected. This healthy dentin tissue sample and carious dentin tissue sample were then each divided into three samples.
The healthy dentin tissue sample (26 mg) was divided and treated as follows. […] Fluorescence of bounded hydrazine derivate Lucifer Yellow was checked by a UV lamp. […] The third sample, hereinafter denominated sample S3, (7 mg) and the last procedure was treated with NaBH4 (0.5 M in ethanol) and washed with concentrated ethanol to reduce aldehydes and ketones before the addition of an aqueous solution of the hydrazine derivate Lucifer Yellow (13 mM), repeated rinsing with purified water before dried and analysed. […]
(§3) Thus, in total 6 samples (three from the healthy dentin tissue and three from the carious dentin tissue) were analysed with FTIR within one week after extraction. […]

[6] = test system: healthy dentin tissue; assay: TOF-SIMS of healthy dentin tissue treated with hydrazine derivative (Example 4); settings: TOF-SIMS positive spectra
[7] = test system: carious dentin tissue; assay: TOF-SIMS of carious dentin tissue treated with hydrazine derivative (Example 4)
Description: FTIR-ATR and TOF-SIMS analyses were performed on a sample group consisting of carious tissue inner most layers selected and estimated with an exactness of a working dentist. Samples were pooled from 4-6 teeth of inner layer of carious tissue (37 mg). The pooled sample was divided into two subgroups where one was exposed to the hydrazine derivate Lucifer Yellow and further analysed with TOF-SIMS and the other only analysed with FTIR-ATR. An aqueous solution of the hydrazine derivate Lucifer Yellow (1.8 mM) was added to the inner layer carious tissue (19 mg) and after 1 hour exposure washed with an aqueous solution of NaOH (0.5 M) and purified water before dried over vacuum. […] Each sample was attached to double side tape and analysed with a TOF-SIMS instrument (TOF-SIMS IV, CAMECA/IONTOF, GmbH, Germany). Positive secondary ion mass spectra were recorded from different areas of the sample at a size of 200×200 μm^2 and separated in a mass analyser and next compared with known mass spectra from the Ion Spec application (IonTof, GmbH, Germany, ver. 4.1) linked with the TOF-SIMS instrument. Negative secondary ion mass spectra were also recorded but gave no further information. […]
The upper spectrum was recorded for the sample of carious dentin tissue that had been milled but not subjected to treatment with hydrazine (i.e. the carious dentin tissue reference). […]

[8] = test system: healthy dentin tissue; assay: FTIR of healthy dentin tissue treated with hydrazine derivative (Example 3); parameters: species or system human; settings: 13 mM aqueous solution overnight, FIGS. 3a and 3c
Excerpt: as §1, §2
The healthy dentin tissue sample (26 mg) was divided and treated as follows. […] Fluorescence of bounded hydrazine derivate Lucifer Yellow was checked by a UV lamp. […] The third sample, hereinafter denominated sample S3, (7 mg) and the last procedure was treated with NaBH4 (0.5 M in ethanol) and washed with concentrated ethanol to reduce aldehydes and ketones before the addition of an aqueous solution of the hydrazine derivate Lucifer Yellow (13 mM), repeated rinsing with purified water before dried and analysed.
as §3

mode of binding to carious tissue in infected teeth (conclusion) [3]: bind irreversibly
Molecule: NNC(=O)CSCC(=O)Nc1ccc(-c2c3ccc(=O)cc-3oc3cc(O)ccc23)c(C(=O)O)c1 [5-(2-2-hydrazinyl-2-oxoethylthio)acetamido)-2-(3-hydroxy-6-oxo-6H-xanthen-9-yl)benzoic acid]
colouring of tooth slice after NaCl and NaOH treatment (Day 4) [3]: still contained colourants; also recorded: staining

mode of binding to carious tissue in infected teeth (conclusion) [3]: bind irreversibly
Molecule: Cc1c(CC(=O)NN)c(=O)oc2cc(N)c(S(=O)(=O)O)cc12 [Alexa 350]
colouring of tooth slice after NaCl and NaOH treatment (Day 4) [3]: still contained colourants

The next lines start with the molecule.

Molecule: 6-(2-carboxy-5-(hydrazinecarbonyl)phenyl)-1,2,2,10,10,11-hexamethyl-2,10-dihydro-1H-pyrano[3,2-g]diquinoline-11-ium-4,8-diyl)methanesulfonate [Alexa Fluor® 594]
detection of carious dentin tissue compared with tactile control by a dentist [1]: better and more sensitive
staining of carious cavity ([1]; 15-50 mM aqueous solution, cavity obtained with Carisolv): intense dark bluish colour
staining of surface judged caries free by tactile control ([1]; after Carisolv and hand-instrument excavation): very slight staining
staining after second Carisolv treatment and excavation ([1]; final staining attempt): no staining took place
staining after drilling with high-speed dental drill [2]: staining always took place
colouring of tooth slice after NaCl and NaOH treatment (Day 4) [3]: still contained colourants
colouring of tooth slice after NaCl and NaOH treatment (Day 4) ([3]; listed as Alexa Fluor 594 ®): staining
mode of binding to carious tissue in infected teeth (conclusion) [3]: bind irreversibly

Molecule: CC(=O)Nc1cc(S(=O)(=O)[O-])cc2cc(S(=O)(=O)[O-])c(/N=N/c3ccccc3)c(O)c12.[Na+].[Na+] [Acid red 1]
staining of tooth slice after incubation with 1 M NaCl ([3]; 150 μm slices left overnight in colour, MQ rinse, 1 M NaCl overnight): only little staining remained
colouring of tooth slice after NaCl and NaOH treatment (Day 4) [3]: no colouring
mode of binding to carious tissue in infected teeth (conclusion) [3]: binds in a reversible way
effect of rinsing on dye-labelled carious dentin tissue ([3]; rinsing, general statement of the description): release of the dye bonded to the carious dentin tissue

Molecule: NNC(=O)NN1C(=O)c2cc(S(=O)(=O)O)cc3c(N)c(S(=O)(=O)O)cc(c23)C1=O [Lucifer Yellow]
staining after drilling the smear layer with round type steel dental drill ([4]; aqueous solution 15-50 mM, 1500 rpm, rinsing with water): resulted in staining
staining of smear layer (conclusion) ([4]; smear layer formed by high-speed dental drill on healthy tooth): stained this smear layer
selectivity carious versus healthy dentin tissue ([5]; FTIR conclusion): selectively reacts with carious dentin tissue
reaction with carious dentin tissue ([5]; FTIR, peak at 1740 cm-1 no longer present, FIG. 3d): reaction has taken place
reaction with healthy dentin [6]: did not react with healthy dentin
selectivity carious versus healthy dentin tissue ([7]; TOF-SIMS conclusion): selectively reacts with carious dentin tissue
bonding to carious dentin tissue ([7]; TOF-SIMS positive spectra, 1.8 mM, 1 hour exposure, NaOH wash): covalently bonded
reaction with healthy dentin tissue [8]: no reaction takes place
colouring of tooth slice after NaCl and NaOH treatment (Day 4) [3]: still contained colourants
colouring of tooth slice after NaCl and NaOH treatment (Day 4) ([3]; listed as Lucifer Yellow sodium salt): staining
mode of binding to carious tissue in infected teeth (conclusion) [3]: bind irreversibly
